Data from publication PMC11845477, “Exploring the principles behind antibiotics with limited resistance” (Nature Communications, 2025).
Where a SMILES comes first, the peptide text is derived from it. Bridges are numbered along the chain shown (N, C = ends). [ ]: non-standard residue; d: D form. The star is where a group is joined. X1 = NC[C@@H](CC(=O)*)c1cccc(Cl)c1; Dab = NCC[C@H](N)C(=O)O; Dap = NC[C@H](N)C(=O)O

Tests used:
[1] = tested on: A. baumannii ATCC 17978 (SEN) and A. baumannii ATCC BAA-1605 (MDR); experiment: microbe, parasite or virus in culture; type: cell-based, Acinetobacter baumannii; conditions: for MIC: across three biological replicates
Outline: (§1)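 Cation-adj. MHB2 (not for SCH79797); 11–16-step dilution series; 5 × 10^5 cells/mL; 37 °C, shaking, 18 h; duplicates. Growth by OD600; MIC at OD600 < 0.05. Relative MIC: evolved vs ancestor.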

[2] = tested on: P. aeruginosa ATCC BAA-3107 (SEN) and P. aeruginosa LESB58 (MDR); experiment: microbe, parasite or virus in culture; type: cell-based, Pseudomonas aeruginosa; conditions: for MIC of ancestor: ancestor strain; for MIC: across three biological replicates
Outline: as §1

[3] = tested on: K. pneumoniae ATCC 10031 (SEN) and K. pneumoniae ATCC 700603 (MDR); experiment: Adaptive laboratory evolution (ALE), relative MIC of evolved lines; type: cell-based, Klebsiella pneumoniae
Outline: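 Ten parallel populations per antibiotic–ancestor pair were evolved in MHB at 37 °C, starting near 50% growth-inhibiting drug. Every 72 h they were passaged into 0.5–2.5× increasing concentrations, keeping the highest-drug well with OD600 > 0.2.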

[4] = KP-MDR (Klebsiella pneumoniae ATCC 700603), evolved line 2
[5] = KP-MDR (Klebsiella pneumoniae ATCC 700603), evolved line 4
[6] = KP-MDR (Klebsiella pneumoniae ATCC 700603), evolved line 6
[7] = KP-MDR (Klebsiella pneumoniae ATCC 700603), evolved line 8
[8] = KP-MDR (Klebsiella pneumoniae ATCC 700603), evolved line 10
[9] = KP-SEN (Klebsiella pneumoniae ATCC 10031), evolved line 1
[10] = KP-SEN (Klebsiella pneumoniae ATCC 10031), evolved line 3
[11] = KP-SEN (Klebsiella pneumoniae ATCC 10031), evolved line 4
[12] = KP-SEN (Klebsiella pneumoniae ATCC 10031), evolved line 6
[13] = KP-SEN (Klebsiella pneumoniae ATCC 10031), evolved line 10

CC(C)C[C@@H]1NC(=O)[C@@H](Cc2ccccc2)NC(=O)[C@H](CCN)NC(=O)[C@@H](NC(=O)[C@H](CN)NC(=O)[C@@H](NC(=O)C[C@H](CN)c2cccc(Cl)c2)[C@@H](C)O)CCNC(=O)[C@H]([C@@H](C)O)NC(=O)[C@H](CCN)NC(=O)[C@H](CCN)NC1=O [SPR206] (X1-T[Dap][Dab][Dab][dF]L[Dab][Dab]T; lactam 3-C (inferred); N-terminus assumed)
MIC of ancestor ([1]; A. baumannii ATCC 17978 (AB-SEN), ancestor strain): 0.125 µg/mL
MIC of ancestor ([1]; A. baumannii ATCC BAA 1605 (AB-MDR), ancestor strain): 0.125 µg/mL
MIC of ancestor ([1]; Acinetobacter baumannii ATCC 17978 (AB-SEN), ancestor strain, sheet fig 2a): 0.125 µg/mL
MIC ([1]; Acinetobacter baumannii ATCC 17978 (AB-SEN)): 0.125 µg/mL
MIC of ancestor ([1]; Acinetobacter baumannii ATCC BAA 1605 (AB-MDR), ancestor strain, sheet fig 2a): 0.125 µg/mL
MIC ([1]; Acinetobacter baumannii ATCC BAA-1605 (AB-MDR)): 0.125 µg/mL
MIC of ancestor ([1]; ancestor AB-SEN (Acinetobacter baumannii ATCC 17978)): 0.125 µg/mL
MIC of ancestor ([2]; P. aeruginosa ATCC BAA 3107 (PA-SEN)): 1 µg/mL
MIC of ancestor ([2]; P. aeruginosa ATCC BAA 3107 (PA-SEN), sheet fig 2a): 1 µg/mL
MIC of ancestor ([2]; P. aeruginosa LESB 58 (PA-MDR)): 4 µg/mL
MIC of ancestor ([2]; P. aeruginosa LESB 58 (PA-MDR), sheet fig 2a): 4 µg/mL
MIC ([2]; Pseudomonas aeruginosa ATCC BAA-3107 (PA-SEN)): 1 µg/mL
MIC ([2]; Pseudomonas aeruginosa LESB 58 (PA-MDR)): 4 µg/mL
Relative MIC ([3]; ALE, K. pneumoniae ATCC 700603 (KP-MDR), evolved line 7): 512
Relative MIC ([3]; ALE, K. pneumoniae ATCC 700603 (KP-MDR), evolved line 8): 1024
Relative MIC ([3]; ALE, K. pneumoniae ATCC 700603 (KP-MDR), evolved line 9): 1024
Relative MIC ([3]; ALE, K. pneumoniae ATCC 700603 (KP-MDR), evolved line 10): 512
Relative MIC ([3]; ALE, Klebsiella pneumoniae ATCC 10031 (KP-SEN), evolved line 1): 2048
Relative MIC ([3]; ALE, Klebsiella pneumoniae ATCC 10031 (KP-SEN), evolved line 2): 2
Relative MIC ([3]; ALE, Klebsiella pneumoniae ATCC 10031 (KP-SEN), evolved line 3): 2048
Relative MIC ([3]; ALE, Klebsiella pneumoniae ATCC 10031 (KP-SEN), evolved line 4): 2048
Relative MIC ([3]; ALE, Klebsiella pneumoniae ATCC 10031 (KP-SEN), evolved line 6): 2048
Relative MIC ([3]; ALE, Klebsiella pneumoniae ATCC 10031 (KP-SEN), evolved line 7): 2
Relative MIC ([3]; ALE, Klebsiella pneumoniae ATCC 10031 (KP-SEN), evolved line 8): 2
Relative MIC ([3]; ALE, Klebsiella pneumoniae ATCC 10031 (KP-SEN), evolved line 10): 2048
Relative MIC ([3]; ALE, Klebsiella pneumoniae ATCC 700603 (KP-MDR), evolved line 1): 256
Relative MIC ([3]; ALE, Klebsiella pneumoniae ATCC 700603 (KP-MDR), evolved line 2): 1024
Relative MIC ([3]; ALE, Klebsiella pneumoniae ATCC 700603 (KP-MDR), evolved line 3): 512
Relative MIC ([3]; ALE, Klebsiella pneumoniae ATCC 700603 (KP-MDR), evolved line 4): 256
Relative MIC ([3]; ALE, Klebsiella pneumoniae ATCC 700603 (KP-MDR), evolved line 5): 256
Relative MIC ([3]; ALE, Klebsiella pneumoniae ATCC 700603 (KP-MDR), evolved line 6): 512
MIC of evolved line ([3]; KP-MDR (K. pneumoniae ATCC 700603), evolved line 1 of the given antibiotic): 128 µg/mL
Relative MIC ([3]; KP-MDR (K. pneumoniae ATCC 700603), evolved line 1 vs ancestor): 256
MIC of evolved line ([3]; KP-MDR (K. pneumoniae ATCC 700603), evolved line 2 of the given antibiotic): 512 µg/mL
Relative MIC ([3]; KP-MDR (K. pneumoniae ATCC 700603), evolved line 2 vs ancestor): 1024
MIC of evolved line ([3]; KP-MDR (K. pneumoniae ATCC 700603), evolved line 3 of the given antibiotic): 256 µg/mL
Relative MIC ([3]; KP-MDR (K. pneumoniae ATCC 700603), evolved line 3 vs ancestor): 512
MIC of evolved line ([3]; KP-MDR (K. pneumoniae ATCC 700603), evolved line 4 of the given antibiotic): 128 µg/mL
Relative MIC ([3]; KP-MDR (K. pneumoniae ATCC 700603), evolved line 4 vs ancestor): 256
MIC of evolved line ([3]; KP-MDR (K. pneumoniae ATCC 700603), evolved line 5 of the given antibiotic): 128 µg/mL
Relative MIC ([3]; KP-MDR (K. pneumoniae ATCC 700603), evolved line 5 vs ancestor): 256
MIC of evolved line ([3]; KP-MDR (K. pneumoniae ATCC 700603), evolved line 6 of the given antibiotic): 256 µg/mL
Relative MIC ([3]; KP-MDR (K. pneumoniae ATCC 700603), evolved line 6 vs ancestor): 512
MIC of evolved line ([3]; KP-MDR (K. pneumoniae ATCC 700603), evolved line 7 of the given antibiotic): 256 µg/mL
Relative MIC ([3]; KP-MDR (K. pneumoniae ATCC 700603), evolved line 7 vs ancestor): 512
MIC of evolved line ([3]; KP-MDR (K. pneumoniae ATCC 700603), evolved line 8 of the given antibiotic): 512 µg/mL
Relative MIC ([3]; KP-MDR (K. pneumoniae ATCC 700603), evolved line 8 vs ancestor): 1024
MIC of evolved line ([3]; KP-MDR (K. pneumoniae ATCC 700603), evolved line 9 of the given antibiotic): 512 µg/mL
Relative MIC ([3]; KP-MDR (K. pneumoniae ATCC 700603), evolved line 9 vs ancestor): 1024
MIC of evolved line ([3]; KP-MDR (K. pneumoniae ATCC 700603), evolved line 10 of the given antibiotic): 256 µg/mL
Relative MIC ([3]; KP-MDR (K. pneumoniae ATCC 700603), evolved line 10 vs ancestor): 512
Relative MIC ([3]; KP-MDR (Klebsiella pneumoniae ATCC 700603), evolved line 1): 256
Relative MIC [3, 4]: 1024
Relative MIC (log10) [3, 4]: 3.0103 log10
Relative MIC ([3]; KP-MDR (Klebsiella pneumoniae ATCC 700603), evolved line 3): 512
Relative MIC [3, 5]: 256
Relative MIC (log10) [3, 5]: 2.408 log10
Relative MIC ([3]; KP-MDR (Klebsiella pneumoniae ATCC 700603), evolved line 5): 256
Relative MIC [3, 6]: 512
Relative MIC (log10) [3, 6]: 2.709 log10
Relative MIC ([3]; KP-MDR (Klebsiella pneumoniae ATCC 700603), evolved line 7): 512
Relative MIC [3, 7]: 1024
Relative MIC (log10) [3, 7]: 3.0103 log10
Relative MIC ([3]; KP-MDR (Klebsiella pneumoniae ATCC 700603), evolved line 9): 1024
Relative MIC [3, 8]: 512
Relative MIC (log10) [3, 8]: 2.709 log10
MIC of evolved line ([3]; KP-SEN (K. pneumoniae ATCC 10031), evolved line 1 of the given antibiotic): 1020 µg/mL
Relative MIC ([3]; KP-SEN (K. pneumoniae ATCC 10031), evolved line 1 vs ancestor): 2048
MIC of evolved line ([3]; KP-SEN (K. pneumoniae ATCC 10031), evolved line 2 of the given antibiotic): 1 µg/mL
Relative MIC ([3]; KP-SEN (K. pneumoniae ATCC 10031), evolved line 2 vs ancestor): 2
MIC of evolved line ([3]; KP-SEN (K. pneumoniae ATCC 10031), evolved line 3 of the given antibiotic): 1020 µg/mL
Relative MIC ([3]; KP-SEN (K. pneumoniae ATCC 10031), evolved line 3 vs ancestor): 2048
MIC of evolved line ([3]; KP-SEN (K. pneumoniae ATCC 10031), evolved line 4 of the given antibiotic): 1020 µg/mL
Relative MIC ([3]; KP-SEN (K. pneumoniae ATCC 10031), evolved line 4 vs ancestor): 2048
MIC of evolved line ([3]; KP-SEN (K. pneumoniae ATCC 10031), evolved line 6 of the given antibiotic): 1020 µg/mL
Relative MIC ([3]; KP-SEN (K. pneumoniae ATCC 10031), evolved line 6 vs ancestor): 2048
MIC of evolved line ([3]; KP-SEN (K. pneumoniae ATCC 10031), evolved line 7 of the given antibiotic): 1 µg/mL
Relative MIC ([3]; KP-SEN (K. pneumoniae ATCC 10031), evolved line 7 vs ancestor): 2
MIC of evolved line ([3]; KP-SEN (K. pneumoniae ATCC 10031), evolved line 8 of the given antibiotic): 1 µg/mL
Relative MIC ([3]; KP-SEN (K. pneumoniae ATCC 10031), evolved line 8 vs ancestor): 2
MIC of evolved line ([3]; KP-SEN (K. pneumoniae ATCC 10031), evolved line 10 of the given antibiotic): 1020 µg/mL
Relative MIC ([3]; KP-SEN (K. pneumoniae ATCC 10031), evolved line 10 vs ancestor): 2048
Relative MIC [3, 9]: 2048
Relative MIC (log10) [3, 9]: 3.311 log10
Relative MIC ([3]; KP-SEN (Klebsiella pneumoniae ATCC 10031), evolved line 2): 2
Relative MIC [3, 10]: 2048
Relative MIC (log10) [3, 10]: 3.311 log10
Relative MIC [3, 11]: 2048
Relative MIC (log10) [3, 11]: 3.311 log10
Relative MIC [3, 12]: 2048
Relative MIC (log10) [3, 12]: 3.311 log10
Relative MIC ([3]; KP-SEN (Klebsiella pneumoniae ATCC 10031), evolved line 8): 2
Relative MIC [3, 13]: 2048
Relative MIC (log10) [3, 13]: 3.311 log10
Relative MIC ([3]; KP-SEN, Klebsiella pneumoniae ATCC 10031, evolved line 7): 2
Relative MIC ([3]; Klebsiella pneumoniae ATCC 10031 (KP-SEN), evolved line 1): 2048
Relative MIC ([3]; Klebsiella pneumoniae ATCC 10031 (KP-SEN), evolved line 2): 2
Relative MIC ([3]; Klebsiella pneumoniae ATCC 10031 (KP-SEN), evolved line 3): 2048
Relative MIC ([3]; Klebsiella pneumoniae ATCC 10031 (KP-SEN), evolved line 4): 2048
Relative MIC ([3]; Klebsiella pneumoniae ATCC 10031 (KP-SEN), evolved line 6): 2048
Relative MIC ([3]; Klebsiella pneumoniae ATCC 10031 (KP-SEN), evolved line 7): 2
Relative MIC ([3]; Klebsiella pneumoniae ATCC 10031 (KP-SEN), evolved line 8): 2
Relative MIC ([3]; Klebsiella pneumoniae ATCC 10031 (KP-SEN), evolved line 10): 2048
Relative MIC ([3]; Klebsiella pneumoniae ATCC 700603 (KP-MDR), evolved line 1): 256
Relative MIC ([3]; Klebsiella pneumoniae ATCC 700603 (KP-MDR), evolved line 2): 1024
Relative MIC ([3]; Klebsiella pneumoniae ATCC 700603 (KP-MDR), evolved line 3): 512
Relative MIC ([3]; Klebsiella pneumoniae ATCC 700603 (KP-MDR), evolved line 4): 256
Relative MIC ([3]; Klebsiella pneumoniae ATCC 700603 (KP-MDR), evolved line 5): 256
Relative MIC ([3]; Klebsiella pneumoniae ATCC 700603 (KP-MDR), evolved line 6): 512
Relative MIC ([3]; Klebsiella pneumoniae ATCC 700603 (KP-MDR), evolved line 7): 512
Relative MIC ([3]; Klebsiella pneumoniae ATCC 700603 (KP-MDR), evolved line 8): 1024
Relative MIC ([3]; Klebsiella pneumoniae ATCC 700603 (KP-MDR), evolved line 9): 1024
Relative MIC ([3]; Klebsiella pneumoniae ATCC 700603 (KP-MDR), evolved line 10): 512
